Test [1] relates to low-threshold calcium channel in central neurons. The settings on record: Tang C-M., et al., Science, 240:213; cited from earlier work.
In test [2] the test system is calcium channel reconstituted in a lipid bilayer. The test is classed as biochemical, guinea pig. Particulars: for concentration at which single channels were blocked: cerebellar-origin channel, 80 mM BaCl2 cis / 120 mM CsCl trans; for calcium channel activity of the reconstituted channel: concentration not given.
The subject of test [3] is low-threshold calcium channel. As to the kind of experiment: Low-threshold calcium channel isolated on amiloride gel, lipid bilayer. The settings on record: 250micromolar. The test is classed as biochemical, Guinea pig. The procedure: Guinea pig cerebellar material was processed as in Example 7. It was then purified according to the method of Example 8 except that the amiloride gel chromatography was performed after the factor-coupled gel chromatography. (The latter chromatographic purification was thus used to remove the high-threshold channel recognized by the active factor of the present invention.)
The low-threshold calcium channel was eluted from the amiloride gel using 400 mM sucrose, 10 mM HEPES (pH 7.4) containing 1 mM amiloride.
The channel activity of the thus-purified gel was tested as described above by the lipid bilayer technique. The channel has an estimated conductance of about 8 pS, is characterized by rapid openings (of the order of 1-100 msec at […]), is rapidly inactivated (within about 1 sec at the same depolarization), and was blocked by cadmium (250micromolar).

Test [4] has as its system calcium channel in vesicles. Nature of the test: Calcium uptake into quin-2-loaded vesicles (fluorescence).

Where two headings read alike, the source gives them in different places.

As for `N=C(N)NC(=O)c1nc(Cl)c(N)nc1N` [amiloride, 3,5-diamino-N-(aminoiminomethyl)-6-chloropyrazine carboxamide], the “block of low-threshold calcium channel” value in test [1] is “specifically blocks”.

On to `[Cd]` [cadmium], for which, in test [2], the “concentration at which single channels were blocked” value is reported as “less than 100 micromolar” and the “calcium channel activity of the reconstituted channel” value (“calcium channel activity” for short) is on record as “blocked”. Besides, the “calcium channel activity” value in test [2] (listed as Cd^++) is reported as “completely blocked”. Besides, in test [3], the low-threshold channel activity entry is on record as “blocked”. For the same molecule, in test [4] (50 micromolar, calcium 2 mM additions), the “uptake of calcium into the vesicles” value is “blocked”. In addition, the “intravesicular fluorescence over time” value in test [4] (100 micromolar before addition of 2 mM CaCl2) is “did not increase with time and remained at the baseline”.

Take `[Co]` [cobalt]: the “Calcium Conductance” value in test [2] (100 mM CaCl2 pH 7.5 and 20 M × 10^-6 Co^++ outside only, voltage range ±200) was “none”. In test [2], the “concentration at which single channels were blocked” value was “less than 100 micromolar”. In addition, the “calcium channel activity” value in test [2] is listed as “blocked”; in test [2] (listed as Co^++), “completely blocked”.

For the molecule `COC(=O)C1=C(C)NC(C)=C(C(=O)OC)C1c1ccccc1[N+](=O)[O-]` [nifedipine], the “effect on the isolated calcium channels” value in test [2] (5×10^-6 M) was “neither blocker had an effect”.

Values taken from patent US4950739A (priority 1988, dated 1990).
